{"source": "patent US20250346575A1", "about": "“ISOINDOLINONE DERIVATIVE HAVING GLUTARIMIDE MOTHER NUCLEUS, AND USE THEREOF” (KOREA RESEARCH INSTITUTE OF CHEMICAL TECHNOLOGY, priority 2021, published 2025)", "key": {"GSPT1 protein": {"molecular_target": "T1, GSPT1 protein (Homo sapiens, UniProt P15170+Q96SW2)", "T1 construct": "endogenous in cells; host or cells: KG-1 cells", "T1 sequence (P15170 whole entry)": "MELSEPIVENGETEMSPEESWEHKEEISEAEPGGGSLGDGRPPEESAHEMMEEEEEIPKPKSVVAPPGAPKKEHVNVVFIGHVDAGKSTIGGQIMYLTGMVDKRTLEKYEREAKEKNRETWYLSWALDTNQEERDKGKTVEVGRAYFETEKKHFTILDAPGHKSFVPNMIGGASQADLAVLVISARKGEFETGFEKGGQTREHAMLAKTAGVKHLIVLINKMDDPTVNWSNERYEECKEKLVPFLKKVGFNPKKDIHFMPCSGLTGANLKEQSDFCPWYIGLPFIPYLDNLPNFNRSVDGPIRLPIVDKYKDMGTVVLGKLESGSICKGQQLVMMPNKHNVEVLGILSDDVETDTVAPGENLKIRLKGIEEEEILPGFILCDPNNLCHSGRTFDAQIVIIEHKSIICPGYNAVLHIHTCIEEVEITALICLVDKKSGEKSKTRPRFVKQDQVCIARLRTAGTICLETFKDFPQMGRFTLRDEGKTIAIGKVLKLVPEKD", "T1 sequence (Q96SW2 whole entry)": "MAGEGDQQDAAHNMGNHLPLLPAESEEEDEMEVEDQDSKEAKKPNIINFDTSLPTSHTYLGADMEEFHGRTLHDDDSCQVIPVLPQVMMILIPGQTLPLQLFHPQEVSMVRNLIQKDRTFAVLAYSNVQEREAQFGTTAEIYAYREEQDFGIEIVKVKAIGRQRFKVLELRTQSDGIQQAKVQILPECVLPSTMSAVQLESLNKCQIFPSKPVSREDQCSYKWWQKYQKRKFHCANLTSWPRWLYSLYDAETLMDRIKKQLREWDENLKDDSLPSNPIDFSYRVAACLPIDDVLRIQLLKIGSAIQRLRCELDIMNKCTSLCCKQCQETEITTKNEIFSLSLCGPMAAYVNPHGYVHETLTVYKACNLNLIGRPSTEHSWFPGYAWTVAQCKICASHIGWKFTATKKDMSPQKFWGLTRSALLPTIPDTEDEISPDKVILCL", "T1 sequence (Q16531 whole entry partner)": "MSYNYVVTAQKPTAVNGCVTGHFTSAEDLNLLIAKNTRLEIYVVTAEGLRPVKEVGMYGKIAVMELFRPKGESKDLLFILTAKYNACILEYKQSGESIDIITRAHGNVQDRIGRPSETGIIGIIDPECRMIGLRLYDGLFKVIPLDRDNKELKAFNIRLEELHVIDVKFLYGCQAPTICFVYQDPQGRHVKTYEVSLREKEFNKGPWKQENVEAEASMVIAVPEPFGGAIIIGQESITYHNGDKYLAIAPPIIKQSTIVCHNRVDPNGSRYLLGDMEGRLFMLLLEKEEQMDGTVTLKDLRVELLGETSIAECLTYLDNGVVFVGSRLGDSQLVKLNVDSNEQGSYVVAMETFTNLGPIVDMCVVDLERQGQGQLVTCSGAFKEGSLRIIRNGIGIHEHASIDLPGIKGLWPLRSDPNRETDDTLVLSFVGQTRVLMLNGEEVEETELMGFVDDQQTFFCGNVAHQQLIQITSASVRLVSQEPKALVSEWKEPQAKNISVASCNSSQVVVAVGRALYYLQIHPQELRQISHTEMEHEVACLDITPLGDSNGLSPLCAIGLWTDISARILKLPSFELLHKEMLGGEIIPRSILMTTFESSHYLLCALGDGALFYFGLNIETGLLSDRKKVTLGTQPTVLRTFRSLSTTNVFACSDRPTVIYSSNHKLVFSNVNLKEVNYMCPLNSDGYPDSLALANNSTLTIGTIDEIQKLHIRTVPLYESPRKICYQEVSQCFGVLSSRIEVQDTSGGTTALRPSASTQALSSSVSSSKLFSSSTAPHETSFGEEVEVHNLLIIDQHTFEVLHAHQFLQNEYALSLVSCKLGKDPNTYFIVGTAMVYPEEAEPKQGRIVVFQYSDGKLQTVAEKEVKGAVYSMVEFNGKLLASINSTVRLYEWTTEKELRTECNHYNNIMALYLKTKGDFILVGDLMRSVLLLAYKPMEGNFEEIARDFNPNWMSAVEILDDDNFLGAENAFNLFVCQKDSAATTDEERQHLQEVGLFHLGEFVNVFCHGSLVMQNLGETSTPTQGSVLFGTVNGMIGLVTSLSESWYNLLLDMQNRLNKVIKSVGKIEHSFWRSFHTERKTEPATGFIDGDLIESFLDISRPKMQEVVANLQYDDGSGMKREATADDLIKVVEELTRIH", "assay": "Substrate protein degradation activity of CRBN (Western blot)", "format": "cell-based", "conditions": "KG-1 cell lines, 6 hours, FIG. 1", "excerpt": "Examination was made to determine whether the compounds of the present disclosure bind to cereblon (CRBN) and inhibit the function of CRBN. In this regard, the compounds were investigated for degradation activity for Ikaros (IKZF1) protein (Chamberlain, P. P. et al., 2014) or GSPT1 protein (Matyskiela, M. E. et al., 2016) which CRBN protein degrades when binding to thalidomide and analogs thereof.\nIn order to assay the compounds according to the present disclosure for degradation activity for Ikaros (IKZF1) protein or GSPT1 protein, experiments were carried out as follows.\nKG-1 cells were seeded at a density of 5×10^5 cells per well into 12-well plates, and each compound was added at predetermined concentration to the wells. After 6 hours, cell lysates were collected using TBSN buffer. The degradation activity of Ikaros protein was assessed using an antibody against Ikaros protein, and the degradation activity of GSPT1 protein was evaluated using an antibody against GSPT1 protein through Western blot analysis. In this regard, equal amounts of protein were loaded into each well of a 4-15% gradient gel, and after electrophoresis, proteins were transferred to a PVDF membrane. Each protein was then bound with primary antibodies, followed by the attachment of HRP-conjugated secondary antibodies, and developed using an HRP substrate."}, "Cancer cells (KG-1)": {"test_system": "Cancer cells (KG-1)", "assay": "Cytotoxicity assay, WST-1, KG-1", "format": "cell-based"}}, "data": [{"smiles": "O=C1CCC(N2Cc3cc(CNC(=O)c4noc5cc(Cl)ccc45)ccc3C2=O)C(=O)N1", "note": "(stereo not drawn) [Compound 10, 6-Chloro-N-((2-(2,6-dioxopiperidin-3-yl)-1-oxoisoindolin-5-yl)methyl)benzo[d]isoxazole-3-carboxamide]", "values": [{"measurement": "degradation of GSPT1 protein", "setting": "GSPT1 protein", "result": "selectively promote the degradation of GSPT1 protein"}, {"measurement": "IC50", "setting": "Cancer cells (KG-1); Homo sapiens, KG-1 cells, 72 hours, WST-1", "result": "0.0001 to 0.01", "unit": "µM"}, {"measurement": "cytotoxic activity against KG-1 and NCI-H1155 cancer cells (in words)", "setting": "Cancer cells (KG-1); R1 bicyclic heteroaryl compared to monocyclic aryl (comparative substance) or heteroaryl (Compounds 37 and 38)", "result": "more potent cytotoxic activity"}]}]}
